Test results: EP0974351A2, “Medicament for preventing and treating gastrointestinal damage” (JOUVEINAL, priority 1998, dated 2000)

Legend:
[1] = test system: gastric damage induced by indomethacin; experiment: Indomethacin (80 mg/kg) gastric damage in rats, percent of gastric area damaged by image analysis; format: in vivo, Male CD-Sprague-Dawley rats; conditions: indomethacin + vehicle 5.56 ± 0.48
Experimental: The following test in rats was carried out to further establish the ability of gabapentin and Pregabalin to reduce the gastrointestinal damage caused by NSAIDS.
(§1) Male CD-Sprague-Dawley rats (132-202 g) were received and housed in a room with controlled temperature, humidity, and 12-hour light/dark cycle. After a period of acclimatization of 4 to 5 days, and after a 24-hour food fasting period, animals were used for the study described below.
(§2) Gabapentin or pregabalin (CI-1008) were dissolved in water and administered orally at the following doses: 1, 10, 100, and 200 mg/kg in a volume of 1 mL. Control animals were dosed with an equal volume of vehicle (1 mL of water). Sixty minutes later, all the animals received 1 mL of a solution of 80 mg/kg indomethacin dissolved in 5% aqueous NaHCO3. Control animals received 1 mL of 5% aqueous NaHCO3 orally. Experimental groups were as follows:
(§3) Animals were sacrificed by decapitation 4 hours post-indomethacin administration. The stomach was removed and opened along the greater curvature and its image digitized and stored on an optical disk using a 486-based PC computer equipped with CUE3 system imaging analysis software (Olympus Corp., Marietta, Georgia, USA). Two 6-mm biopsies were taken from a constant region of the gastric mucosa located in each side of the glandular portion of the stomach and their PGE2 content was measured using a commercially available ELISA kit (Assay Designs Inc., Ann Arbor, Michigan, USA). The presence of gastric damage was determined using the retrieved electronic image, and the extent of damage was measured using the CUE3 imaging software. Data are expressed as a percent of gastric area damaged and the PGE2 content (pg/mL).

PGE2 = PGE2 content of gastric mucosa biopsies (ELISA) in indomethacin-treated rats; format: in vivo, Male CD-Sprague-Dawley rats; conditions: for effect on the inhibition of PGE2 caused by indomethacin: any dose tested (1-200 mg/kg orally)
Experimental: as §1, §2, §3

[2] = test system: handling responses following withdrawal of chronic ethanol treatment; experiment: Handling-induced behavior after ethanol withdrawal in mice; format: in vivo, Male albino mice of the outbred TO strain
Experimental: (§4) Male albino mice of the outbred TO strain (Bantin and Kingman, UK) were used in all studies. The weight ranged from 25 to 35 g, with no more than a 5 g range in any single experiment. The mice were housed, eight per cage, at 21°C ± 1°C, with 55 ± 10% relative humidity, and a 12-hour light/dark cycle with the light phase between 09:00 to 21:00. All mice received ad libitum access to tap water and standard laboratory chow (RM-1, Special Diet Services, UK) until their use in experiments or until their diet was replaced with a liquid diet.
(§5) Ethanol was administered in a liquid diet schedule. All mice received control diet for an initial 2-day period. Ethanol treated mice then received a diet containing 3.5% (v/v) ethanol/water for 2 days, followed by a diet containing 7% ethanol for a further 5 days. The average intake was 22 to 30 g/kg/day. Control groups were pair-fed a control diet, balanced isocalorifically to match the ethanol containing diet. There were no differences in the weights of the ethanol-treated and control mice at the end of the treatment periods. When mice were withdrawn from the ethanol (between 07:00 AM and 09:00 AM), they were provided with tap water until their use in experiments.
(§6) Gabapentin was dissolved in saline, the solution being made freshly each testing day. Intraperitoneal (i.p.) injections of either gabapentin, 10 mL/kg, or saline, were given immediately on withdrawal from the ethanol treatment, in the studies on the handling responses and 2 hours prior to measurement of audiogenic seizures. In the experiments using the elevated plus maze, gabapentin or saline was injected i.p. at 8 hours after the removal of the ethanol diet, and the mice placed on the plus maze 60 minutes after the injections. In the studies on motor co-ordination (ataxia) and on locomotor activity, gabapentin or saline was injected to ethanol-naive chow fed mice immediately before testing. Measurements were then made for 60 minutes for the ataxia study, and for 30 minutes in the case of the locomotor activity.
Following withdrawal from the ethanol treatment at 09:00 AM, ratings of handling-induced behavior were assessed by the same experimenter, on the same mice, every hour for a period of 12 hours after withdrawal from ethanol.
Each mouse was lifted gently by the tail and held for 3 seconds, 30 cm under an "Anglepoise lamp" with a 60-watt bulb. The animal was gently rotated and its ensuing behavior rated on a scale of 1 to 5 according to the criteria in Table 2. Groups of 15 mice were used in each of the treatment groups, and the data were calculated as medians with interquartile ranges. The data were also expressed as the area under the curve at 4 and 12 hours from the withdrawal of the ethanol treatment.
The results of the handling response ratings were compared by nonparametric two-way analysis of variance, designed for repeat measures on the same animal. The results of the area under the curve calculations were compared by the Mann-Whitney U-test. The convulsion incidence was analyzed by Fisher's exact probability test. The measurements from the elevated plus maze were subjected to one-way analysis of variance, followed by a Bonuferroni multiple comparison test, comparing all groups to the control group which received saline injections, and also both ethanol treated groups which received gabapentin to the ethanol treated group which received saline. The ataxia measurements were analyzed by the Mann-Whitney U-test and the locomotor activity by Student's t-test.

Anxiety-Related Behavior = experiment: Elevated plus maze, anxiety-related behavior 8 hours after ethanol withdrawal in mice; format: in vivo, Male albino mice of the outbred TO strain
Experimental: as §4, §5, §6
Mice were withdrawn from the ethanol diet at 7:00 AM and tested for anxiety-related behavior 8 hours later using a murine elevated plus-maze. It was constructed of perspex with two opposing open arms (30 × 5 × 0.25 cm) and two opposing closed arms (30 × 5 × 15 cm) which extended from a central platform (5 × 5 cm). The floor was of matt black perspex. The animals were acclimatized to the experimental room 1 hour prior to experimentation. Experiments were conducted under dim red light, and each 5 minute session was video-taped for later analysis, by an observer unaware of the prior treatment. During this analysis (Observer 3.0, Noldus Information Technology, Wageningen, Netherlands) measurements were made of the time spent on each arm of the maze, the number of entries onto each arm and rearing activity. Measures were also made as described in Table 3.
The results of the handling response ratings were compared by nonparametric two-way analysis of variance, designed for repeat measures on the same animal. The results of the area under the curve calculations were compared by the Mann-Whitney U-test. The convulsion incidence was analyzed by Fisher's exact probability test. […] The ataxia measurements were analyzed by the Mann-Whitney U-test and the locomotor activity by Student's t-test.

[3] = 1 mg/kg orally 60 min before indomethacin 80 mg/kg, 4 hours post-indomethacin, average ± standard error
[4] = 10 mg/kg orally 60 min before indomethacin 80 mg/kg
[5] = 100 mg/kg orally 60 min before indomethacin 80 mg/kg
[6] = 200 mg/kg orally 60 min before indomethacin 80 mg/kg
[7] = 1 mg/kg orally before indomethacin 80 mg/kg, control 9525.27 ± 156.00, indomethacin + vehicle 1908.03 ± 72.31
[8] = 10 mg/kg orally before indomethacin 80 mg/kg, indomethacin + vehicle 1908.03 ± 72.31
[9] = 100 mg/kg orally before indomethacin 80 mg/kg, indomethacin + vehicle 1908.03 ± 72.31
[10] = 200 mg/kg orally before indomethacin 80 mg/kg, indomethacin + vehicle 1908.03 ± 72.31

Structure (SMILES)	% Area Damaged [1, 3] [%]	% Area Damaged [1, 4] [%]	% Area Damaged [1, 5] [%]	% Area Damaged [1, 6] [%]	PGE2 Synthesis (PGE2; [7]) [pg/mL]	PGE2 Synthesis (PGE2; [8]) [pg/mL]	PGE2 Synthesis (PGE2; [9]) [pg/mL]	PGE2 Synthesis (PGE2; [10]) [pg/mL]	effect on the inhibition of PGE2 caused by indomethacin (PGE2)	area under the handling curve for the first 4 hours ([2]; gabapentin 20 mg/kg i.p., p <0.05)	area under the handling curve for the first 4 hours ([2]; gabapentin 50 mg/kg i.p., p <0.05)	duration of marked reduction in handling scores ([2]; gabapentin 100 mg/kg i.p.)	ratings of behavior in response to gentle handling over the 12-hour testing period ([2]; gabapentin 100 mg/kg i.p. on withdrawal from ethanol, p <0.001)	area under the handling curve for the first 4 hours ([2]; gabapentin 100 mg/kg i.p., p <0.01)	ratings of behavior in response to gentle handling over the 12-hour period of measurement ([2]; lower doses of gabapentin (below 100 mg/kg) i.p. on withdrawal from ethanol)	decrease in the percentage time spent on the open arms caused by ethanol withdrawal (Anxiety-Related Behavior; gabapentin 50 mg/kg i.p. 60 min before test, p <0.05 vs saline)	decrease in the percentage time spent on the open arms caused by ethanol withdrawal (Anxiety-Related Behavior; gabapentin 100 mg/kg i.p. 60 min before test, p <0.01 vs saline)	mean time on the open arms in control animals (Anxiety-Related Behavior; gabapentin 100 mg/kg i.p., control diet, mean increased)	number of protected head dips in control animals (Anxiety-Related Behavior; gabapentin 100 mg/kg i.p., control diet, p <005 (so in the source))	increase in protected head dips in mice undergoing ethanol withdrawal (Anxiety-Related Behavior; gabapentin 100 mg/kg i.p., p <0.01 compared with saline)
CC(C)C[C@H](CN)CC(=O)O [CI-1008, (S)-3-(aminomethyl)-5-methylhexanoic acid]	8.07 ± 2.19	4.07 ± 0.42	1.99± 0.25	0.34 ± 0.06	1209.95 ± 105.50	2666.16 ± 307.45	3994.45 ± 318.95	3288.92 ± 407.43	Neither gabapentin nor CI-1008, at any dose tested, were able to significantly modify this effect											
NCC1(CC(=O)O)CCCCC1 [Gabapentin, 1-(aminomethyl)-cyclohexane acetic acid]	2.99 ± 0.46	3.96 ± 0.35	1.87 ± 0.1	1.43 ± 0.40	1783.66 ± 73.47	3065.78 ± 137.19	2997.90 ± 226.80	2615.74 ± 165.36	Neither gabapentin nor CI-1008, at any dose tested, were able to significantly modify this effect	significant effects	significant effects	around 4 hours	significantly reduced	significant effects	not significant	decreased this effect	decreased this effect	not significantly different from controls with saline	significantly decreased	significantly reduced
